This is an account of results in US20100227826A1, “Stable Flavonoid Solutions” (priority 2005, published 2010).

One experiment addresses T1, tyrosinase (Homo sapiens, UniProt P14679).
T1 construct: Where tyrosinase is active, L-DOPA is oxidized, producing an observable black pigment in the melanocytes; from tissue; host or cells: living abdominal skin explants (melanocytes)
T1 sequence (P14679 19-529): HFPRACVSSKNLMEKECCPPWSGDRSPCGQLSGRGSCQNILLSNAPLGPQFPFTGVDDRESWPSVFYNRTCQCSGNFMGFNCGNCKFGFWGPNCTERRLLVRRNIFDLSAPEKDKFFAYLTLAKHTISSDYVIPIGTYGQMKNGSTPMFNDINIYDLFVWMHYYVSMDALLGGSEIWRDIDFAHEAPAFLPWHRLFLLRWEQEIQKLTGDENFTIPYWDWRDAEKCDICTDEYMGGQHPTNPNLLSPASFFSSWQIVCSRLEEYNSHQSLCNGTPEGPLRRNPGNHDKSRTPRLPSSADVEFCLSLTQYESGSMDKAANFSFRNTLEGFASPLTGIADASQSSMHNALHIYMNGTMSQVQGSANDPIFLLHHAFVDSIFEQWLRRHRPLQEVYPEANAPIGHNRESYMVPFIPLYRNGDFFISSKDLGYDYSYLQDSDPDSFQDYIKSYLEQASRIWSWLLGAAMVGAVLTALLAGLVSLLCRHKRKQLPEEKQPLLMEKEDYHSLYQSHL
Briefly: Tyrosinase activity in living skin explant sections (L-DOPA method of Laidlaw and Blackberg). In kind it is cell-based. The following applies: non-irradiated skin explants, topical gel 2 mg/cm^2, Day 5.

Experiment [1] has as its system melanin within the melanocytes. Briefly: Melanin deposits in melanocytes of skin explants, Fontana-Masson silver stain. The experiment is classed as cell-based, human. The following applies: Day 5. On the procedure: (§1) Skin samples from an abdominal plastic surgery patient are placed in a specific explant survival medium BEM from Centre de Recherche Laboratoire BIO-EC (Clamart, France). Once daily, the living skin explants are irradiated with a Vilber Lourmat solar simulator RMX3W (Marne-la-Vallee, France) at a dose of 75 mJ/cm^2 within a wavelength range of 290-330 nm and a peak of 312 nm (UVB) for 80 seconds.
(§2) Five minutes following irradiation, the skin samples are treated with a topical application of 2 mg/cm^2 of a gel formulation comprising the Phytocytol™ BLM, a stable flavonoid solution according to the present invention. The gel formulation is made according to the following procedure: Three separate gels, each containing one of baicalin, luteolin and myricetin, are prepared according to the same procedure. In a main beaker, add DI Water, Germall Plus and Carbopol Ultrez-10. When Carbopol is dispersed add ¼ of the indicated amount of Neutrol TE. Add Polycast-3 and continue mixing. Add the flavonoid solution (A, B and C) until homogenous. Add the remaining Neutrol TE and mix. The resulting Baicalin Gel, Luteolin Gel and Myricetin Gel are mixed in equal parts to form a gel having a pH of 6.91 and a viscosity of 30,500 cps (LV4@12 rpm). […]

The subject of a further experiment is melanocyte dendricity. Briefly: Melanocyte dendricity in skin explant cryostat sections, Anti-Melan-A immunofluorescence. In kind it is cell-based, human. Conditions: Day 5. On the procedure: as §1, §2

In the case of `OC[C@H]1O[C@@H](Oc2ccc(O)cc2)[C@H](O)[C@@H](O)[C@@H]1O` [arbutin], the “level of tyrosinase activity” value on tyrosinase is reported as “substantially greater compared to the arbutin-treated samples”. Moreover, the melanin deposits entry is listed as “low levels of melanin deposits” in experiment [1] (absence of UVB irradiation) and “An increase in melanin deposits is not observed” in experiment [1] (after exposure to UVB irradiation). For the same compound, the “level of melanocyte dendricity” value with melanocyte dendricity (after UVB irradiation, skin explants) is on record as “low level of dendricity”; in the experiment on melanocyte dendricity (non-UVB irradiated skin explants), “low level of dendricity”.
